# Assays:
# A549 cell line = assay: Dye efflux flow cytometry MDR assay; assay type: cell-based, human; set-up: key to D-value, Verapamil / D-value, Novobiocin: KS D value, 0 to 1; negative if control brighter than sample; conditions: for D-value, +4° C.: kept on ice without inhibitor; for D-value, Novobiocin: test concentration or dose not given here; for D-value, Verapamil: test concentration or dose not given here
# Source text: (§1) Kolmogorov-Smirnov statistics measures the difference between two distribution functions and generates a D value ranging between 0 and 1.0, with higher values indicating a greater difference between the distribution functions. The D value generated by the KS statistics was modified by ascribing a negative value if the fluorescence of a negative control (no inhibitor) was brighter than the fluorescence of the sample with inhibitor. The method was one of those recommended by the First International MDR1 Methods Detection Workshop (St. Jude Children's Research Hospital, Memphis, Tenn.).
# (§2) Cells were grown in tissue culture dishes and on the day of assay they were trypsinized and washed twice with ice-cold PBS. Post-wash, the cells were re-suspended in cold phenol red indicator-free medium at a density of 1×10^6/ml. For each detection set, eighteen tubes (6 tubes without inhibitor and 3 tubes for each inhibitor tested, in triplicates) each containing 2.5-5×10^5/cells were prepared. Cells were centrifuged at 200×g for 5 min, and after discarding supernatant, re-suspended at 1×10^6/ml in ice-cold indicator-free medium containing Fluo-8™ AM or Rhod-4™ AM probes. Additionally, an aliquot of non-stained cells was prepared for background fluorescence measurements. Cells were incubated with the probe(s) on ice for 60 min, than centrifuged at 200×g for 5 min. After discarding the supernatant, cells were either washed twice with PBS or simply were spun down to remove the excess of the probe and resuspended at 5×10^5 cells/sample in 0.5 ml of following solutions:
# (§3) 1. warm (37° C.) indicator-free medium containing vehicle only (3 tubes)
# (§4) 2. warm (37° C.) indicator-free medium containing inhibitor (3 tubes for each inhibitor tested)
# (§5) 3. ice-cold indicator-free medium (3 tubes)
# (§6) Tube sets 1 and 2 were immediately transferred to a water bath (37° C.) and incubated for 90 min. Tube set 3 was kept on ice. Post incubation, 4 ml of ice-cold indicator-free medium was added per tube, tubes were centrifuged at 200×g for 5 min, supernatant was discarded, and cell pellet was re-suspended in the cold indicator-free medium and centrifuged again. Finally, cells were re-suspended in 0.5 ml of cold indicator-free medium and maintained on ice until analysis. Alternatively, cells were analyzed without washing. Flow cytometry experiments were performed as described in Example 3.
# HeLa cell line = assay: Dye efflux flow cytometry MDR assay; assay type: cell-based, human; set-up: key to D-value, Verapamil / D-value, Novobiocin: KS D value, 0 to 1; negative if control brighter than sample; conditions: for D-value, +4° C.: kept on ice without inhibitor; for D-value, Novobiocin: test concentration or dose not given here; for D-value, Probenecid: test concentration or dose not given here
# Source text: as §1, §2, §3, §4, §5, §6
# [1] = A549, dye efflux, representative experiment (Table 9)
# [2] = Fluo-8 AM probe, dye efflux, A549, No Wash
# [3] = Fluo-8 AM probe, dye efflux, A549, Wash
# [4] = representative experiment (Table 9)
smiles,measurement,setting,value
CC(=O)OCOC(=O)CN(CC(=O)OCOC(C)=O)c1ccccc1OCCOc1cc(-c2c3ccc(=O)cc-3oc3cc(OCOC(C)=O)ccc23)ccc1N(CC(=O)OCOC(C)=O)CC(=O)OCOC(C)=O [Fluo-8 ™ AM],"D-value, 4° C.","A549 cell line; A549, dye efflux, kept on ice without inhibitor (Table 9)",0.80
same,"D-value, Cyclosporine A",A549 cell line; [1],0.5
same,"D-value, Novobiocin",A549 cell line; [1],0.57
same,"D-value, Probenecid",A549 cell line; [1],0.33
same,"D-value, Verapamil",A549 cell line; [1],0.02
same,"D-value, Cyclosporin A",A549 cell line; [2],0.83
same,"D-value, Novobiocin",A549 cell line; [2],0.57
same,"D-value, Probenecid",A549 cell line; [2],0.33
same,"D-value, Verapamil",A549 cell line; [2],0.12
same,"D-value, +4° C.",A549 cell line; [2],0.77
same,"D-value, Cyclosporin A",A549 cell line; [3],0.71
same,"D-value, Novobiocin",A549 cell line; [3],0.46
same,"D-value, Probenecid",A549 cell line; [3],0.18
same,"D-value, Verapamil",A549 cell line; [3],0.11
same,"D-value, +4° C.",A549 cell line; [3],0.75
same,"D-value, Cyclosporin A","HeLa cell line; Fluo-8 AM probe, No Wash",0.12
same,"D-value, Novobiocin","HeLa cell line; Fluo-8 AM probe, No Wash",0.13
same,"D-value, Probenecid","HeLa cell line; Fluo-8 AM probe, No Wash",0.13
same,"D-value, Verapamil","HeLa cell line; Fluo-8 AM probe, No Wash",0.076
same,"D-value, +4° C.","HeLa cell line; Fluo-8 AM probe, No Wash",0.15
same,"D-value, Cyclosporin A","HeLa cell line; Fluo-8 AM probe, Wash",0.14
same,"D-value, Novobiocin","HeLa cell line; Fluo-8 AM probe, Wash",0.16
same,"D-value, Probenecid","HeLa cell line; Fluo-8 AM probe, Wash",0.14
same,"D-value, Verapamil","HeLa cell line; Fluo-8 AM probe, Wash",0.14
same,"D-value, +4° C.","HeLa cell line; Fluo-8 AM probe, Wash",0.14
same,"D-value, 4° C.",HeLa cell line; kept on ice without inhibitor (Table 9),0.83
same,"D-value, Cyclosporine A",HeLa cell line; [4],0.13
same,"D-value, Novobiocin",HeLa cell line; [4],0.15
same,"D-value, Probenecid",HeLa cell line; [4],0.16
same,"D-value, Verapamil",HeLa cell line; [4],0.15
